Results: EP1321493A1, “Method for enhancing the solubility of a colorant” (DSM N.V., priority 2001, dated 2003)

Assays:
[1] = according to The Sigma-Aldrich Handbook of Stains, Dyes and Indicators; cited from earlier work
[2] = Solubility / concentration of colorant in toluene; assay type: physicochemical; details: pure colorant

| solubility in toluene (in words) [2] | SMILES | maximum solubility of the pure dye in water [1] |
| --- | --- | --- |
| – | O=C1/C(=C2\Nc3ccc(S(=O)(=O)[O-])cc3C2=O)Nc2ccc(S(=O)(=O)[O-])cc21.[Na+].[Na+] [Acid Blue 74] | 0.3% |
| insoluble | Cl.Cl.Nc1ccc(N=Nc2cccc(N=Nc3ccc(N)cc3N)c2)c(N)c1 [Basic Brown 1] | – |
| – | CC1(C)Nc2cccc3c(N=Nc4ccc(N=Nc5ccccc5)c5ccccc45)ccc(c23)N1 [Solvent Black 3] | 0.01% |
| – | CCN(CC)c1ccc(C(=C2C=CC(=[N+](CC)CC)C=C2)c2ccc(S(=O)(=O)[O-])cc2S(=O)(=O)[O-])cc1.[Na+] [Acid Blue 1] | 3,0% |
